Assay results reported in patent US12661335B2, “Halogenated xanthene-containing topical anti-gram-positive bacterial ophthalmic composition and method” (Provectus Pharmatech, Inc., priority 2021, dated 2026).
Converted amounts (≈) assume the structure as drawn.

Assays:
[1] = test system: Streptococcus salivarius subsp. Salivarius 7073 ™; test: MIC, broth dilution method, dark condition; type: cell-based
[2] = test system: Staphylococcus aureus AIS2006032 (a vancomycin-resistant strain); test: MIC, broth dilution method, dark condition; type: cell-based; conditions: Table 1 entry 12, 24 h
[3] = test system: Staphylococcus aureus subsp. Aureus BAA-44 ™ (a MRSA strain); test: MIC, agar dilution method; type: cell-based; conditions: Table 2 fourth entry (printed 1), dark
Description: (§1) The MIC values of RB determined by the agar dilution method differed from those determined by the broth dilution method (Table 1). Selected examples of the MIC values determined by the agar dilution method are summarized in Table 2 shown by renumbering the assayed microbes.

Bacillus cereus 13061 ™ = test: MIC, agar dilution method; type: cell-based; conditions: Table 2 entry 2, dark
Description: as §1

[4] = test system: Staphylococcus aureus 6538 ™; test: MIC, agar dilution method; type: cell-based; conditions: Table 2 entry 3, dark
Description: as §1

[5] = test system: Bacillus subtilis ATCC6051; test: MIC, agar dilution method; type: cell-based; conditions: Table 2 entry 1, dark
Description: as §1

[6] = test system: Mycobacterium smegmatis 607 ™; test: MIC, agar dilution method; type: cell-based; conditions: Mycolicibacterium smegmatis, Table 2 entry 5, dark
Description: as §1

[7] = test system: biofilms of drug-resistant S. aureus 71080 (VRS8); test: Biofilm eradication assay; type: cell-based, Staphylococcus aureus; conditions: fluorescent and dark conditions; concentration-dependent
Description: Linezolid is not an effective drug in eradicating biofilms of Gram-positive bacteria, but has a beneficial effect in prevention of biofilm formations [Reiter et al., J. Med. Microbiol. 62:394-399 (2013)], and was used as a control.
We confirm that RB is an excellent agent to eradicate biofilms of Gram-positive bacteria, including drug-resistant strains. […] These studies indicate that RB has the potential antibacterial agent to kill drug-resistant bacteria in any growth phases.

Mycobacterial spp. = test: Killing concentrations for five Mycobacterial spp.; type: cell-based, Mycobacterium spp.
Protocol: Antibacterial activity of RB against 5 Mycobacterium spp. Was examined (entries 25-29). […] RB inhibited growth of Saccharomyces cerevisiae at higher concentrations than the bacteria under the dark condition (entry 30).
RB kills Mycobacterial spp. At 12.5-25.0 mg/mL in illumination conditions, and at 25.0-50.0 mg/mL in dark conditions (Table 1). In both conditions, RB kills five Mycobacterial spp. At a slower rate than that of Gram-positive bacteria. RB seems to have low-permeability of mycobacterial cell walls. Due to rapid bactericidal effect of RB against Gram-positive bacteria even in the dark condition, generation of RB-resistant mutants of Gram-positive bacteria is an extremely difficult task.

C. albicans = conditions: three days of incubation, cited from earlier work
[8] = test system: Bacillus subtilis ATCC6051; test: MIC, broth dilution method, dark condition; type: cell-based; conditions: Table 1 entry 1, 24 h
[9] = test system: Enterococcus faecium UAA714 (a vancomycin-resistant strain); test: MIC, broth dilution method, dark condition; type: cell-based; conditions: Table 1 entry 22, 24 h
Gram-positive bacteria = test: MIC summary for Gram-positive bacteria, broth dilution; type: cell-based
Description: Under the dark condition RB is known to display antibacterial activity at high concentrations.
Provectus has established a manufacturing and purification process for pharmaceutical-grade RB that fulfills both cGMP and ICH requirements. We have evaluated the antibacterial activity and cytotoxicity of a pharmaceutical-grade RB formulated product (PV-10®) as an exemplary RB compound in illuminating and dark conditions.

[10] = test system: Enterococcus faecium BAA-2320; test: MIC, broth dilution method, dark condition; type: cell-based; conditions: BAA2320, Table 1 entry 19, 24 h
[11] = test system: Staphylococcus aureus USA100 strains 71080 (VRS8, a vancomycin-resistant strain); test: MIC, broth dilution method, dark condition; type: cell-based; conditions: Table 1 entry 15, 24 h
[12] = test system: Enterococcus faecalis 19433 ™; test: MIC, broth dilution method, dark condition; type: cell-based; conditions: Table 1 entry 17, 24 h
[13] = test system: Enterococcus faecium 349 ™; test: MIC, broth dilution method, dark condition; type: cell-based; conditions: Table 1 entry 18, 24 h
[14] = test system: Bacillus cereus NRRL B-569; test: MIC, broth dilution method, dark condition; type: cell-based; conditions: NRRLB569, Table 1 entry 2, 24 h
[15] = test system: Mycobacterium kansasii 824 ™; test: MIC, broth dilution method, dark condition; type: cell-based; conditions: Table 1 entry 27, 24 h
[16] = test system: Saccharomyces cerevisiae BY4743; test: MIC, broth dilution method, dark condition; type: cell-based; conditions: Table 1 entry 30, 24 h
[17] = test system: vancomycin-resistant S. aureus strains; conditions: under either lighting condition (fluorescent or LED); entries 12-16
Protocol: Minimum inhibitory concentrations (MICs) were determined by broth dilution microplate alamar blue assay or by OD measurement. All compounds were stored in DMSO or saline (1 mg/100 μL concentration). This concentration was used as the stock solution for all MIC studies. Each compound from stock solution was placed in the first well of a sterile 96 well plate and a serial dilution was conducted with the culturing broth (total volume of 10 μL). The bacterial suspension at log phase (190 μL) was added to each well (total volume of 200 μL), and was incubated for 24 h at 37° C. 20 μL of resazurin (0.02%) was added to each well and incubated for 4 h, (National Committee for Clinical Laboratory Standards (NCCLS) method (pink=growth, blue=no visible growth)). The OD measurements were performed for all experiments prior to performing colorimetric assays. The absorbance of each well was also measured at 570 and 600 nm via UV-Vis.

[18] = test system: Enterococcus faecium patient #3-1, NR-31912 (a vancomycin-resistant strain); test: MIC, broth dilution method, dark condition; type: cell-based; conditions: Table 1 entry 21, 24 h

For `O=C(O)c1c(Cl)c(Cl)c(Cl)c(Cl)c1-c1c2cc(I)c(=O)c(I)c-2oc2c(I)c(O)c(I)cc12` [RB, 4,5,6,7-tetrachloro-2′,4′,5′,7′-tetraiodofluorescein], the MIC ([1]; Streptococcus salivarius, Table 1 entry 23, broth dilution, dark, 24 h) was 25 µg/mL (≈ 25.7 µM), the “susceptibility to RB” value ([1]; entry 23) was “susceptible” and the MIC [2] was 50 µg/mL (≈ 51.4 µM). It also gave an MIC [3] of 50 µg/mL (≈ 51.4 µM), an MIC (Bacillus cereus 13061 ™) of 125 µg/mL (≈ 128 µM) and an MIC [4] of 25 µg/mL (≈ 25.7 µM). For the same compound, the MIC [5] was 125 µg/mL (≈ 128 µM), the MIC [6] was 50 µg/mL (≈ 51.4 µM) and the “viable cells in biofilm” value [7] was “significantly reduced”. The “concentration at which RB kills Mycobacterial spp.” value (Mycobacterial spp.; dark conditions) was 25.0 to 50.0 mg/mL, the “concentration at which RB kills Mycobacterial spp.” value (Mycobacterial spp.; illumination conditions) was 12.5 to 25.0 mg/mL and the “Day 3 Growth Inhibition Percentage, RB + 518 nm Irradiation” value (C. albicans; 518 nm, 5.4 J/cm^2) was 95.6 ± 3 Percentage. For the same compound, the “Day 3 Growth Inhibition Percentage, RB Only” value (C. albicans; dark, no irradiation) was 42.2 ± 3.7 Percentage, the MIC [8] was 50 µg/mL (≈ 51.4 µM) and the MIC [9] was 50 µg/mL (≈ 51.4 µM). The “concentration showing antibacterial activity against all Gram-positive bacteria of entries 1-23” value (Gram-positive bacteria; dark condition, Table 1) was 25.0 to 100 µg/mL, the MIC (Gram-positive bacteria; saline-diluted PV-10, except Streptococcus pneumoniae sp., lighting not given, read-out: MIC against most Gram-positive bacteria) was 0.39 to 3.1 µg/mL (≈ 0.401 to 3.18 µM) and the MIC [10] was 25 µg/mL (≈ 25.7 µM). The MIC [11] was 25 µg/mL (≈ 25.7 µM), the MIC [12] was 25 µg/mL (≈ 25.7 µM) and the MIC [13] was 50 µg/mL (≈ 51.4 µM). It also gave an MIC [14] of 50 µg/mL (≈ 51.4 µM), an MIC [15] of 50 µg/mL (≈ 51.4 µM) and an MIC [16] of 125 µg/mL (≈ 128 µM). The “concentration at which all vancomycin-resistant strains were killed” value [17] was “below 1.0 μg/mL” and the MIC [18] was 50 µg/mL (≈ 51.4 µM).
